Assay results taken from PubChem BioAssay (NCI).
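Abbreviation: GI50, concentration required for 50% inhibition of growth. TGI: concentration producing complete growth inhibition.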

Key:
Assay in all cases: DTP human tumour cell line panel, 384-well format
[1] = tested on: OVCAR-4 ovarian
[2] = tested on: OVCAR-3 ovarian
[3] = tested on: SK-MEL-28 melanoma
[4] = tested on: HCT-116 colon
[5] = tested on: A498 renal
[6] = tested on: NCI-H23 lung
[7] = tested on: SF-295 CNS
[8] = tested on: PC-3 prostate
[9] = tested on: HT29 colon
[10] = tested on: NCI-H460 NSCLC
[11] = tested on: HL-60(TB) leukemia
[12] = tested on: SF-268 CNS
[13] = tested on: SF-539 CNS
[14] = tested on: HS 578T breast
[15] = tested on: ACHN renal
[16] = tested on: LOX IMVI melanoma
[17] = tested on: RXF 393 renal
[18] = tested on: SK-OV-3 ovarian
[19] = tested on: NCI-H522 lung
[20] = tested on: KM12 colon
[21] = tested on: MCF7 breast
[22] = tested on: BT-549 breast
[23] = tested on: UACC-62 melanoma
[24] = tested on: SNB-19 CNS
[25] = tested on: EKVX NSCLC
[26] = tested on: IGROV1 ovarian
[27] = tested on: MDA-MB-435 melanoma
[28] = tested on: UACC-257 melanoma
[29] = tested on: TK-10 renal
[30] = tested on: HCC-2998 colon
[31] = tested on: U251 glioblastoma
[32] = tested on: SN12C renal
[33] = tested on: COLO 205 colon
[34] = tested on: MALME-3M melanoma
[35] = tested on: DU-145 prostate
[36] = tested on: M14 melanoma
[37] = tested on: OVCAR-5 ovarian
[38] = tested on: T-47D breast
[39] = tested on: NCI-H226 lung
[40] = tested on: CAKI-1 renal
[41] = tested on: HCT-15 colon
[42] = tested on: A549 NSCLC
[43] = tested on: SK-MEL-5 melanoma
[44] = tested on: HOP-92 NSCLC
[45] = tested on: NCI-H322M lung
[46] = tested on: HOP-62 NSCLC
[47] = tested on: MOLT-4 leukemia
[48] = tested on: SR leukemia
[49] = tested on: RPMI-8226 leukemia
[50] = tested on: OVCAR-8 ovarian
[51] = tested on: NCI/ADR-RES ovarian
[52] = tested on: SNB-75 CNS
[53] = tested on: MDA-MB-231 breast

With `COc1ccc(-c2cc3nccn3c(Nc3ncccc3C(N)=O)n2)cc1OC` the GI50 [1] was > 100 µM, the TGI [1] was > 100 µM and the GI50 [2] was 2.36 µM. The TGI [2] was > 100 µM, the GI50 [3] was > 100 µM and the TGI [3] was > 100 µM. For the same molecule, the GI50 [4] was 0.454 µM, the TGI [4] was 10.9 µM and the GI50 [5] was 0.518 µM. The TGI [5] was > 100 µM, the GI50 [6] was 0.858 µM and the TGI [6] was > 100 µM. The GI50 [7] was > 100 µM, the TGI [7] was > 100 µM and the GI50 [8] was 2.17 µM. For the same molecule, the TGI [8] was > 100 µM, the GI50 [9] was 6.96 µM and the TGI [9] was > 100 µM. It also gave a GI50 [10] of 0.555 µM, a TGI [10] of 12.4 µM and a GI50 [11] of 1.15 µM. The TGI [11] was 3.05 µM, the GI50 [12] was 2.02 µM and the TGI [12] was > 100 µM. For the same molecule, the GI50 [13] was 4.82 µM, the TGI [13] was > 100 µM and the GI50 [14] was 1.31 µM. For the same molecule, the TGI [14] was > 100 µM, the GI50 [15] was 0.45 µM and the TGI [15] was 3.75 µM. It also gave a GI50 [16] of 0.461 µM, a TGI [16] of 4.31 µM and a GI50 [17] of 2.36 µM. For the same molecule, the TGI [17] was 91 µM, the GI50 [18] was 0.571 µM and the TGI [18] was > 100 µM. The GI50 [19] was 0.587 µM, the TGI [19] was > 100 µM and the GI50 [20] was 1.73 µM. For the same molecule, the TGI [20] was > 100 µM, the GI50 [21] was 1.11 µM and the TGI [21] was > 100 µM. For the same molecule, the GI50 [22] was 2.26 µM, the TGI [22] was > 100 µM and the GI50 [23] was 0.675 µM. For the same molecule, the TGI [23] was > 100 µM, the GI50 [24] was 51.6 µM and the TGI [24] was > 100 µM. The GI50 [25] was 17.9 µM, the TGI [25] was > 100 µM and the GI50 [26] was 0.666 µM. The TGI [26] was > 100 µM, the GI50 [27] was > 100 µM and the TGI [27] was > 100 µM. The GI50 [28] was 91.7 µM, the TGI [28] was > 100 µM and the GI50 [29] was 0.692 µM. For the same molecule, the TGI [29] was > 100 µM, the GI50 [30] was 46.6 µM and the TGI [30] was > 100 µM. The GI50 [31] was 7.43 µM, the TGI [31] was > 100 µM and the GI50 [32] was 0.819 µM. For the same molecule, the TGI [32] was > 100 µM, the GI50 [33] was 0.522 µM and the TGI [33] was > 100 µM. For the same molecule, the GI50 [34] was > 100 µM, the TGI [34] was > 100 µM and the GI50 [35] was 0.914 µM. The TGI [35] was 12.3 µM, the GI50 [36] was > 100 µM and the TGI [36] was > 100 µM. The GI50 [37] was 4.46 µM, the TGI [37] was > 100 µM and the GI50 [38] was > 100 µM. The TGI [38] was > 100 µM, the GI50 [39] was 6.52 µM and the TGI [39] was > 100 µM. The GI50 [40] was 0.392 µM, the TGI [40] was > 100 µM and the GI50 [41] was 0.677 µM. For the same molecule, the TGI [41] was > 100 µM, the GI50 [42] was 17.9 µM and the TGI [42] was > 100 µM. The GI50 [43] was 0.567 µM, the TGI [43] was > 100 µM and the GI50 [44] was > 100 µM. For the same molecule, the TGI [44] was > 100 µM, the GI50 [45] was 2.06 µM and the TGI [45] was > 100 µM. It also gave a GI50 [46] of 0.784 µM, a TGI [46] of 71.4 µM and a GI50 [47] of 1.48 µM. For the same molecule, the TGI [47] was 5.77 µM, the GI50 [48] was 0.129 µM and the TGI [48] was 0.301 µM. For the same molecule, the GI50 [49] was 1.62 µM, the TGI [49] was > 100 µM and the GI50 [50] was 2.14 µM. For the same molecule, the TGI [50] was > 100 µM, the GI50 [51] was 1.87 µM and the TGI [51] was > 100 µM. The GI50 [52] was > 100 µM, the TGI [52] was > 100 µM and the GI50 [53] was > 100 µM. For the same molecule, the TGI [53] was > 100 µM.
